The test deals with T1, human mGluR3 (hmGluR3) (Homo sapiens, UniProt Q14832).
T1 construct: expressed in transfected cells; host or cells: HEK-293 cells, transient co-transfection by electroporation
The test is described as follows: Human mGluR3 positive allosteric modulator evaluation using Ca++ functional assay. The following applies: hmGluR3 transiently over-expressed in HEK-293 cells; stimulated by EC50 glutamate concentration; intracellular Ca2+ (Fluo4AM, FLIPR Tetra). The class given is cell-based. As for the experimental part:
Compounds of the present invention were tested successively for their agonist and positive allosteric modulator activities on human mGluR3 (hmGluR3) transiently over-expressed in HEK-293 cells. Compounds exert agonist activity if they are able to activate hmGluR3 by themselves, i.e., in absence of the endogenous agonist glutamate; and they exert positive allosteric modulator activity if they increase the action of the endogenous agonist glutamate.
HEK-293 cells were maintained in Modified Eagle's Medium supplemented with 10% Foetal Calf Serum, 1% Penicillin/Streptomycin and 1% non-essential amino acids at 37° C./5% CO2.
Cells were co-transfected by electroporation with four DNA plasmids encoding hmGluR3, a chimeric G protein allowing redirection of the activation signal toward intracellular calcium pathway, and two glutamate transporters so as to decrease extracellular glutamate levels and avoid receptor desensitization (Brabet I et al., Neuropharmacology 37(8), 1043-51, 1998). After transfection, cells were seeded in 75 cm^2 culture flasks, and cultured for 24 h.
Receptor activity was detected by changes in intracellular calcium measured using the fluorescent Ca^2+ sensitive dye, Fluo4AM (Molecular Probes).
The day of the assay, medium was aspirated and replaced during 3 hrs by freshly prepared buffer B (HBSS 1×, Hepes 20 mM, MgSO4-7H2O 1 mM, Na2CO3 3.3 mM, CaCl2-2H2O 1.3 mM, 0.5% BSA, Probenecid 2.5 mM). Then, cells were loaded at 37° C./5% CO2 for 1.5 hrs with buffer B containing 1 μM Fluo4AM, 0.1 mg/mL Pluronic Acid, 7 μg/mL Glutamate Pyruvate Transaminase and 2 mM sodium pyruvate. Afterwards cells were washed with buffer B. Cells were then detached from the 75 cm^2 culture flasks with Accutase® (5 min incubation at 37° C.), centrifuged (5 min at 840 rpm), resuspended in buffer B and finally seeded at a density of 30,000 cells/well in black-walled clear-bottom 384-well plates. Addition of compounds on cells and intracellular Ca^2+ measurements (excitation 485 nm, emission 525 nm) were performed by the fluorescence microplate reader FLIPR Tetra (Molecular Devices).
Agonist and positive allosteric modulator activities of compounds were consecutively evaluated on the same cells plate. Agonist activity was first tested during 10 min with the addition of compound alone on the cells. Then, the cells were stimulated by an EC50 glutamate concentration and fluorescence was recorded for additional 3 min. EC50 glutamate concentration is the concentration giving 50% of the maximal glutamate response. Agonist and/or positive allosteric modulator activity(ies) were evaluated in comparison to basal signal or signal evoked by EC50 glutamate concentration alone, respectively.
For potency determination, a dose-response test was performed using 20 concentrations of each compound of the invention. Dose-response curves were fitted using the sigmoïdal dose-response (variable slope) analysis in XLfit Scientific Curve Fitting for Excel (IDBS). EC50 of agonist/EC50 of positive allosteric modulator activity(ies) were calculated. Dose-response experiments were all performed in duplicate, two times independently.

The values below come from patent US11008323B2, “Substituted tricyclic 1,4-benzodiazepinone derivatives as allosteric modulators of group II metabotropic glutamate receptors” (Domain Therapeutics, priority 2015, dated 2021).

As a reminder, the EC50 is the concentration needed to bring the measured effect to its halfway point. A high value points to a need for much substance.

T1 sequence (Q14832 23-879): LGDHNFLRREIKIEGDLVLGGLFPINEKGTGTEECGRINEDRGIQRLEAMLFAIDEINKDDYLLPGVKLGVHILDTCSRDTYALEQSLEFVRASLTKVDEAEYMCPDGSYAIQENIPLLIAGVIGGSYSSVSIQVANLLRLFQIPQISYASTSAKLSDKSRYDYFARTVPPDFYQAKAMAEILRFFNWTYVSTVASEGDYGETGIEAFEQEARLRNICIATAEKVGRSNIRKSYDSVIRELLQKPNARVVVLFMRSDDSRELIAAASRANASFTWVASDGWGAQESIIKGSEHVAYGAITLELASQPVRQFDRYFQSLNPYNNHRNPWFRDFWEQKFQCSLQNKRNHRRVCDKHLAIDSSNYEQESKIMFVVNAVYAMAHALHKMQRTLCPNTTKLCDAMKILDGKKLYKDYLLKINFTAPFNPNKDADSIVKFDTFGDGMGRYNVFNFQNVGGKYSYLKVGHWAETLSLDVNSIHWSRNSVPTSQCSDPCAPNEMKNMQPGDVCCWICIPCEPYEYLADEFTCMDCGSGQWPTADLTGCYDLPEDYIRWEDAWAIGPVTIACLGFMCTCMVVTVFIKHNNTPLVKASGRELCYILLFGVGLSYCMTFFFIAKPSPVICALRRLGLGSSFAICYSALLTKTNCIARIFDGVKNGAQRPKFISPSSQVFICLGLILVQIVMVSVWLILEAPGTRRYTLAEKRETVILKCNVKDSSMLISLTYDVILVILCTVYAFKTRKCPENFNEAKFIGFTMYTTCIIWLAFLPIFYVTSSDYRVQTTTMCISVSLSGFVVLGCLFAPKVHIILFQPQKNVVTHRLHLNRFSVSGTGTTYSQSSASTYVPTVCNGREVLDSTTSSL

Take `Cc1ncccc1-c1ccc2c(c1)-n1cncc1C(=O)N(C)C2` [Example 215, 5-Methyl-9-(2-methylpyridin-3-yl)-5,6-dihydro-4H-benzo[f]imidazo[1,5-a][1,4]diazepin-4-one]: the concentration for a half-maximal effect (EC50) was greater than 1000 nM.
The result for `Cc1ncccc1-c1ccc2c(c1)-n1cc(-c3cnc[nH]3)cc1C(=O)N(C)C21CC1` [Example 183] reads less than 100 nM; that for `CN1C(=O)c2cccn2-c2cc(-c3ccc(N4CCOCC4)nc3)ccc2C12CC2` [Example 42, 5-Methyl-9-(6-morpholin-4-yl-pyridin-3-yl)-spiro[benzo[f]pyrrolo[1,2-a][1,4]diazepine-6,1′-cyclopropan]-4(5H)-one], 100 to 1000 nM; that for `Cc1cc(-c2ccc3c(c2)-n2nc(-c4ccccc4)cc2C(=O)N(C)C32CC2)ccn1` [Example 122, 9-(2-Methyl-pyridin-4-yl)-5-methyl-2-phenyl-spiro[benzo[f]pyrazolo[1,5-a][1,4]diazepine-6,1′-cyclopropan]-4(5H)-one], 100 to 1000 nM.
With `CN1C(=O)c2cccn2-c2cc(-c3cccnc3C3CC3)ccc2C12CC2` [Example 62, 5-Methyl-9-(2-cyclopropylpyridin-3-yl)-spiro[benzo[f]pyrrolo[1,2-a][1,4]diazepine-6,1′-cyclopropan]-4(5H)-one], the EC50 was in the range of 100 to 1000 nM.
For `Cc1cc2n(c1)-c1cc(-c3cccnc3C)ccc1C1(CC1)N(C)C2=O` [Example 144] the value was less than 100 nM.
For `COCc1cc2n(c1)-c1cc(-c3ccc(C)nc3)ccc1C1(CC1)N(C)C2=O` [Example 205] the value was less than 100 nM.
Consider `CCc1ncccc1-c1ccc2c(c1)-n1cc(-c3ccccc3)cc1C(=O)N(C)C21CC1` [Example 99, 5-Methyl-2-phenyl-9-(2-ethyl-pyridin-3-yl)-spiro[benzo[f]pyrrolo[1,2-a][1,4]diazepine-6,1′-cyclopropan]-4(5H)-one], for which the EC50 fell in the range of 100 to 1000 nM.
Regarding `Cc1cncc(-c2ccc3c(c2)-n2cc(-c4ccccc4)cc2C(=O)N(C)C32CC2)c1` [Example 98, 5-Methyl-2-phenyl-9-(5-methyl-pyridin-3-yl)-spiro[benzo[f]pyrrolo[1,2-a][1,4]diazepine-6,1′-cyclopropan]-4(5H)-one], the EC50 was 100 to 1000 nM.
The result for `CCc1ncccc1-c1ccc2c(c1)-n1cc(-c3ccnn3C)cc1C(=O)N(C)C21CC1` [Example 163] reads less than 100 nM.
The result for `Cc1ncccc1-c1cccc2c1-n1cccc1C(=O)N(C)C21CC1` [Example 92, 10-(2-Methyl-pyridin-3-yl)-5-methyl-spiro[benzo[f]pyrrolo[1,2-a][1,4]diazepine-6,1′-cyclopropan]-4(5H)-one] reads greater than 1000 nM; that for `CN1C(=O)c2cc(-c3ccccc3)nn2-c2cc(-c3ccc(N)nc3)ccc2C12CC2` [Example 127, 9-(6-Amino-pyridin-3-yl)-5-methyl-2-phenyl-spiro[benzo[f]pyrazolo[1,5-a][1,4]diazepine-6,1′-cyclopropan]-4(5H)-one], less than 100 nM.
For `Cc1cnccc1-c1ccc2c(c1)-n1cccc1C(=O)N(C)C21CC1` [Example 38, 5-Methyl-9-(3-methylpyridin-4-yl)-spiro[benzo[f]pyrrolo[1,2-a][1,4]diazepine-6,1′-cyclopropan]-4(5H)-one], the EC50 lay within 100 to 1000 nM.
For `CCc1ncccc1-c1ccc2c(c1)-n1cc(COC)cc1C(=O)N(C)C21CC1` [Example 206] the value was less than 100 nM.
The result for `Cc1ccc(-c2ccc3c(c2)-n2cc(-c4ccnn4C)cc2C(=O)N(C)C32CC2)cn1` [Example 159] reads less than 100 nM; that for `CN1C(=O)c2cc(-c3ccccc3)cn2-c2cc(-c3ccccn3)ccc2C12CC2` [Example 111, 5-Methyl-2-phenyl-9-(pyridin-2-yl)-spiro[benzo[f]pyrrolo[1,2-a][1,4]diazepine-6,1′-cyclopropan]-4(5H)-one], less than 100 nM; that for `Cc1cc(-c2ccc3c(c2)-n2nc(-c4ccccc4)cc2C(=O)N(C)C32CC2)cc(C)n1` [Example 121, 9-(2,6-Dimethyl-pyridin-4-yl)-5-methyl-2-phenyl-spiro[benzo[f]pyrazolo[1,5-a][1,4]diazepine-6,1′-cyclopropan]-4(5H)-one], 100 to 1000 nM.
For `CN1C(=O)c2cc(-c3nnco3)cn2-c2cc(-c3ccc(Cl)nc3)ccc2C12CC2` [Example 191] the value was less than 100 nM; for `Cc1ncccc1-c1ccc2c(c1)-n1cc(-c3cccc(Cl)c3)cc1C(=O)N(C)C21CC1` [Example 148], 100 to 1000 nM; for `Cc1ncccc1-c1ccc2c(c1)-n1ccnc1C(=O)N(C)C2` [Example 216, 5-Methyl-9-(2-methylpyridin-3-yl)-5,6-dihydro-4H-benzo[f]imidazo[1,2-a][1,4]diazepin-4-one], greater than 1000 nM.
Regarding `Cc1ncccc1-c1ccc2c(c1)-n1cc(-c3ccc(Cl)cc3)cc1C(=O)N(C)C21CC1` [Example 149], the half-maximal effective concentration (EC50) lay within 100 to 1000 nM.
For `CCc1ncccc1-c1ccc2c(c1)-n1cc(C)cc1C(=O)N(C)C21CC1` [Example 199] the value was less than 100 nM; for `CCC1c2ccc(Br)cc2-n2cccc2C(=O)N1C` (centres unmarked) [Example 214, 9-Bromo-5-methyl-6-ethyl-5,6-dihydro-benzo[f]pyrrolo[1,2-a][1,4]diazepin-4-one], greater than 1000 nM.
For `CN1C(=O)c2cc(-c3nnco3)cn2-c2cc(Br)ccc2C12CC2` [Example 189] the value was greater than 1000 nM; for `Cc1ncccc1-c1cc2c(cc1F)C1(CC1)N(C)C(=O)c1cccn1-2` [Example 77, 8-Fluoro-5-methyl-9-(2-methyl-pyridin-3-yl)-spiro[benzo[f]pyrrolo[1,2-a][1,4]diazepine-6,1′-cyclopropan]-4(5H)-one], 100 to 1000 nM.
The result for `Cc1ccc(-c2ccc3c(c2)-n2cc(-c4ccccc4)cc2C(=O)N(C)C32CC2)cn1` [Example 103, 5-Methyl-2-phenyl-9-(6-methyl-pyridin-3-yl)-spiro[benzo[f]pyrrolo[1,2-a][1,4]diazepine-6,1′-cyclopropan]-4(5H)-one] reads less than 100 nM.
Compound `Cc1ncccc1-c1ccc2c(c1)-n1cc(-c3ccccc3)nc1C(=O)N(C)C2` [Example 166, 5-Methyl-9-(2-methylpyridin-3-yl)-2-phenyl-5,6-dihydro-4H-benzo[f]imidazo[1,2-a][1,4]diazepin-4-one] gave an EC50 of 100 to 1000 nM.
Compound `CN1C(=O)c2cc(-c3ccccc3)nn2-c2cc(Br)ccc2C12CC2` [Example 11, 9-Bromo-5-methyl-2-phenyl-spiro[benzo[f]pyrazolo[1,5-a][1,4]diazepine-6,1′-cyclopropan]-4(5H)-one] registered an EC50 greater than 1000 nM.
Compound `CN1C(=O)c2cc(-c3ccccc3)nn2-c2cc(-c3ccccc3Cl)ccc2C12CC2` [Example 131, 9-(2-Chloro-phenyl)-5-methyl-2-phenyl-spiro[benzo[f]pyrazolo[1,5-a][1,4]diazepine-6,1′-cyclopropan]-4(5H)-one] had a 50% effective concentration (EC50) greater than 1000 nM.
The result for `Cc1ncccc1-c1ccc2c(c1)-n1cc(CC3CCCC3)cc1C(=O)N(C)C21CC1` [Example 196] reads 100 to 1000 nM.
In the case of `Cc1ncccc1-c1ccc2c(c1)-n1cc(-c3ccnn3C)cc1C(=O)N(C)C21CC1` [Example 160], the 50% effective concentration (EC50) is less than 100 nM.
The result for `Cc1ncccc1-c1ccc2c(c1)-n1cc(-c3ncc[nH]3)cc1C(=O)N(C)C21CC1` [Example 184] reads less than 100 nM; that for `CCc1ncccc1-c1ccc2c(c1)-n1cc(Br)cc1C(=O)N(C)C21CC1` [Example 19, 2-Bromo-5-methyl-9-(2-ethyl-pyridin-3-yl)-spiro[benzo[f]pyrrolo[1,2-a][1,4]diazepine-6,1′-cyclopropan]-4(5H)-one], 100 to 1000 nM.
The result for `Cc1ncccc1-c1ccc2c(c1)-n1cccc1C(=O)N(C)C2(C)C` [Example 223, 5,6,6-Trimethyl-9-(2-methyl-pyridin-3-yl)-5,6-dihydro-benzo[f]pyrrolo[1,2-a][1,4]diazepin-4-one] reads 100 to 1000 nM; that for `CN1Cc2ccc(-c3ccc(N)nc3)cc2-n2cc(-c3ccccc3)cc2C1=O` [Example 165, 9-(6-Amino-pyridin-3-yl)-5-methyl-2-phenyl-5,6-dihydro-benzo[f]pyrrolo[1,2-a][1,4]diazepin-4-one], 100 to 1000 nM.
